In ChEMBL document CHEMBL1201862, “PubChem BioAssay data set” (2004):
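All cell lines were grown in 96-well plates and treated with compound for 48 hours. GI50: concentration for 50% inhibition of growth.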 The source made the active and inactive calls. Rule as the data show it: active = GI50 up to about 1.1 µM and inactive = higher.

Columns and labels:
Test in all cases: DTP human tumour cell line panel, 48 h
[1] = tested on: 786-0
[2] = tested on: A498
[3] = tested on: A549
[4] = tested on: BT-549
[5] = tested on: CAKI-1
[6] = tested on: CCRF-CEM
[7] = tested on: COLO 205
[8] = tested on: DU-145
[9] = tested on: EKVX
[10] = tested on: HCC 2998
[11] = tested on: HCT-116
[12] = tested on: HCT-15
[13] = tested on: HL-60
[14] = tested on: HT-29
[15] = tested on: Hs-578T
[16] = tested on: IGROV-1
[17] = tested on: K562
[18] = tested on: KM12
[19] = tested on: LOX IMVI
[20] = tested on: M14
[21] = tested on: MCF7
[22] = tested on: MDA-MB-231
[23] = tested on: MDA-MB-435
[24] = tested on: MOLT-4
[25] = tested on: Malme-3M
[26] = tested on: NCI-H226
[27] = tested on: NCI-H23
[28] = tested on: NCI-H460
[29] = tested on: NCI-H522
[30] = tested on: NCI/ADR-RES
[31] = tested on: OVCAR-3
[32] = tested on: OVCAR-4
[33] = tested on: OVCAR-5
[34] = tested on: OVCAR-8
[35] = tested on: PC-3
[36] = tested on: RPMI-8226
[37] = tested on: RXF 393
[38] = tested on: SF-268
[39] = tested on: SF-539
[40] = tested on: SK-MEL-28
[41] = tested on: SK-MEL-2
[42] = tested on: SK-MEL-5
[43] = tested on: SK-OV-3
[44] = tested on: SN12C
[45] = tested on: SNB-19
[46] = tested on: SNB-75
[47] = tested on: SR
[48] = tested on: SW-620
[49] = tested on: T47D
[50] = tested on: TK-10
[51] = tested on: U-251
[52] = tested on: UACC-257
[53] = tested on: UACC-62
[54] = tested on: UO-31
[55] = tested on: ACHN
[56] = tested on: HOP-62
[57] = tested on: HOP-92
[58] = tested on: SF-295

For `CSC1=C(C(=O)Nc2ccc(Cl)cc2)C(N)=NC1=O`, the GI50 [1] was > 100 µM (inactive), the GI50 [2] was > 100 µM (inactive) and the GI50 [3] was > 100 µM (inactive). The GI50 [4] was > 100 µM (inactive), the GI50 [5] was 29 µM (inactive) and the GI50 [6] was > 100 µM (inactive). For the same molecule, the GI50 [7] was > 100 µM (inactive), the GI50 [8] was > 100 µM (inactive) and the GI50 [9] was > 100 µM (inactive). The GI50 [10] was > 100 µM (inactive), the GI50 [11] was > 100 µM (inactive) and the GI50 [12] was greater than 100 µM. The GI50 [13] was > 100 µM (inactive), the GI50 [14] was > 100 µM (inactive) and the GI50 [15] was > 100 µM (inactive). For the same molecule, the GI50 [16] was 19.7 µM (inactive), the GI50 [17] was > 100 µM (inactive) and the GI50 [18] was > 100 µM (inactive). The GI50 [19] was > 100 µM (inactive), the GI50 [20] was > 100 µM (inactive) and the GI50 [21] was > 100 µM (inactive). For the same molecule, the GI50 [22] was > 100 µM (inactive), the GI50 [23] was > 100 µM (inactive) and the GI50 [24] was > 100 µM (inactive). The GI50 [25] was > 100 µM (inactive), the GI50 [26] was > 100 µM (inactive) and the GI50 [27] was > 100 µM (inactive). For the same molecule, the GI50 [28] was > 100 µM (inactive), the GI50 [29] was > 100 µM (inactive) and the GI50 [30] was > 100 µM (inactive). For the same molecule, the GI50 [31] was > 100 µM (inactive), the GI50 [32] was > 100 µM (inactive) and the GI50 [33] was > 100 µM (inactive). The GI50 [34] was > 100 µM (inactive), the GI50 [35] was > 100 µM (inactive) and the GI50 [36] was > 100 µM (inactive). For the same molecule, the GI50 [37] was > 100 µM (inactive), the GI50 [38] was > 100 µM (inactive) and the GI50 [39] was > 100 µM (inactive). For the same molecule, the GI50 [40] was > 100 µM (inactive), the GI50 [41] was > 100 µM (inactive) and the GI50 [42] was > 100 µM (inactive). The GI50 [43] was > 100 µM (inactive), the GI50 [44] was > 100 µM (inactive) and the GI50 [45] was > 100 µM (inactive). For the same molecule, the GI50 [46] was > 100 µM (inactive), the GI50 [47] was 37.8 µM (inactive) and the GI50 [48] was > 100 µM (inactive). The GI50 [49] was > 100 µM (inactive), the GI50 [50] was > 100 µM (inactive) and the GI50 [51] was > 100 µM (inactive). For the same molecule, the GI50 [52] was > 100 µM (inactive), the GI50 [53] was > 100 µM (inactive) and the GI50 [54] was 45.1 µM (inactive).

`CCCCCCCC/C=C\CCCCCCCC(=O)OC[C@]1(CO)CCC(=O)O1` was tested, and the GI50 [1] was > 100 µM (inactive), the GI50 [2] was > 100 µM (inactive) and the GI50 [3] was > 100 µM (inactive). The GI50 [55] was > 100 µM (inactive), the GI50 [4] was > 100 µM (inactive) and the GI50 [5] was > 100 µM (inactive). The GI50 [6] was > 100 µM (inactive), the GI50 [7] was > 100 µM (inactive) and the GI50 [8] was > 100 µM (inactive). For the same molecule, the GI50 [9] was > 100 µM (inactive), the GI50 [10] was > 100 µM (inactive) and the GI50 [11] was > 100 µM (inactive). The GI50 [12] was greater than 100 µM, the GI50 [56] was > 100 µM (inactive) and the GI50 [57] was > 100 µM (inactive). The GI50 [14] was > 100 µM (inactive), the GI50 [15] was > 100 µM (inactive) and the GI50 [16] was > 100 µM (inactive). The GI50 [17] was > 100 µM (inactive), the GI50 [18] was > 100 µM (inactive) and the GI50 [19] was > 100 µM (inactive). For the same molecule, the GI50 [20] was > 100 µM (inactive), the GI50 [21] was > 100 µM (inactive) and the GI50 [22] was > 100 µM (inactive). The GI50 [23] was > 100 µM (inactive), the GI50 [24] was > 100 µM (inactive) and the GI50 [25] was > 100 µM (inactive). The GI50 [26] was > 100 µM (inactive), the GI50 [27] was > 100 µM (inactive) and the GI50 [28] was > 100 µM (inactive). For the same molecule, the GI50 [29] was > 100 µM (inactive), the GI50 [30] was > 100 µM (inactive) and the GI50 [31] was > 100 µM (inactive). For the same molecule, the GI50 [32] was > 100 µM (inactive), the GI50 [33] was > 100 µM (inactive) and the GI50 [34] was > 100 µM (inactive). For the same molecule, the GI50 [35] was > 100 µM (inactive), the GI50 [37] was > 100 µM (inactive) and the GI50 [38] was > 100 µM (inactive). For the same molecule, the GI50 [58] was > 100 µM (inactive), the GI50 [40] was > 100 µM (inactive) and the GI50 [41] was > 100 µM (inactive). The GI50 [42] was > 100 µM (inactive), the GI50 [43] was > 100 µM (inactive) and the GI50 [44] was > 100 µM (inactive). The GI50 [45] was > 100 µM (inactive), the GI50 [46] was > 100 µM (inactive) and the GI50 [47] was > 100 µM (inactive). The GI50 [48] was > 100 µM (inactive), the GI50 [49] was > 100 µM (inactive) and the GI50 [50] was > 100 µM (inactive). For the same molecule, the GI50 [51] was > 100 µM (inactive), the GI50 [52] was > 100 µM (inactive) and the GI50 [53] was > 100 µM (inactive). For the same molecule, the GI50 [54] was > 100 µM (inactive).
